# Experimental data taken from patent publication US12304897B2, “15-PGDH inhibitors” (KYORIN PHARMACEUTICAL CO., LTD., priority 2019, dated 2025).
# Target: recombinant human 15-PGDH (Homo sapiens (Human), UniProt P15428)
# Experiment: 15-PGDH enzyme inhibition test
# Assay type: biochemical
# Conditions: 4 nM recombinant human 15-PGDH, 30 μM PGE2, 1 mM NAD+, fluorescence 340/440 nm after 60 min
# Procedure: 15-PGDH Enzyme Inhibition Test
# Test compounds and 4 nM recombinant human 15-PGDH (R&D systems) in 50 mM Tris-HCl (pH 8.0) containing 0.01% TWEEN 20 (Sigma) and 0.01% bovine gamma globulin (Sigma) were put into 384 Flat Bottom Black plates (Corning, 3820) and allowed to stand for 12 minutes at room temperature. Then, 30 μM PGE2 (Cayman chemical) and 1 mM NAD^+ (Sigma) were added to start reaction. Sixty minutes after the start of reaction, signals were measured at an excitation wavelength of 340 nm and a fluorescence emission wavelength of 440 nm using Synergy 2 (BioTeck). The intensity of the fluorescent signal obtained when an assay buffer was added in place of the test compounds and NAD^+ was defined as 100% and that obtained with the addition of NAD^+ was defined as 0%.
# recombinant human 15-PGDH, sequence (P15428 whole entry): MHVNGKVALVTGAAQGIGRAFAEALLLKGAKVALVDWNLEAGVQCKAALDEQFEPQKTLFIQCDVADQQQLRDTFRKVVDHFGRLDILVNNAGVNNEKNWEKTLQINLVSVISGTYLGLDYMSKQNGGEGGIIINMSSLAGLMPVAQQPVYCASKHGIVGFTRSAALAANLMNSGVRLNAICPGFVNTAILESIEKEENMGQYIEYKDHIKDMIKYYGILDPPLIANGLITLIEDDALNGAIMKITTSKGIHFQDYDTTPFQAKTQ
row,IC50 [nM],Compound
1,< 3,C[C@H]1CCCN(C(=O)c2ccc3c(N4CCc5c(cc[nH]c5=O)C4)cccc3c2)C1 [compound 60]
2,< 3,O=C(c1ccc2c(N3CCc4c(cc[nH]c4=O)C3)cccc2c1)N1CCCCC1 [compound 62]
3,< 3,CN1Cc2cc(-c3cccc4cc(C(=O)N5CCC[C@@H](F)C5)ccc34)ccc2C1=O [compound 63]
4,< 3,O=C(c1ccc2c(-c3ccc4c(=O)[nH]ccc4c3)cccc2c1)N1CCCCC1 [compound 64]
5,< 3,Cn1nc2cc(-c3cccc4cc(C(=O)N5CCC(F)(F)CC5)ccc34)ccn2c1=O [compound 65]
6,< 3,CCN1Cc2cc(-c3cccc4cc(C(=O)N5CCC(F)(F)CC5)ccc34)ccc2C1=O [compound 66]
7,< 3,O=C(c1ccc2c(-c3cnc4c(=O)[nH]ccc4c3)cccc2c1)N1CCC(F)(F)CC1 [compound 67]
8,< 3,O=C(O)c1ccc(-c2cccc3cc(C(=O)N4CCC(F)(F)CC4)ccc23)cc1F [compound 68]
9,< 3,CN1Cc2cc(-c3cncc4cc(C(=O)N5CCCCC5)ccc34)ccc2C1=O [compound 69]
10,≥ 10,CN1Cc2cc(-c3cccc4nc(C(=O)N5CCCCC5)ccc34)ccc2C1=O [compound 70]
11,< 3,O=C(c1ccc2c(-c3ccc4c(ccc[n+]4[O-])c3)cccc2c1)N1CCC(F)(F)CC1 [compound 71]
12,< 3,C[C@H]1CCCN(C(=O)c2ccc3c(-c4cnc5c(c4)CN(C)C5=O)cccc3c2)C1 [compound 72]
13,≥ 10,CN1Cc2cc(-c3ccc4cc(C(=O)N5CCC(F)(F)CC5)ccc4c3)ccc2C1=O [compound 73]
14,< 3,Cn1nc2n(c1=O)CCN(c1cccc3cc(C(=O)N4CCCCC4)ccc13)C2 [compound 74]
15,< 3,Cn1nc2n(c1=O)CCN(c1cccc3cc(C(=O)N4CCC(F)(F)CC4)ccc13)C2 [compound 75]
16,< 3,O=C(c1ccc2c(-c3ccc4ncccc4c3)cccc2c1)N1CCC(F)(F)CC1 [compound 76]
17,< 3,Cc1ccc2c(n1)CCN(c1cccc3cc(C(=O)N4CCCCC4)ccc13)C2 [compound 77]
18,< 3,CN1Cc2cc(-c3cccc4cc(C(=O)N5CCC(F)(F)CC5)ccc34)cnc2C1=O [compound 78]
19,≥ 10,CN1CCC2(CCN(c3cccc4cc(C(=O)N5CCCCC5)ccc34)CC2)C1=O [compound 79]
20,< 3,O=C(c1ccc2c(-c3ccc4c(=O)[nH]ncc4c3)cccc2c1)N1CCCC1 [compound 80]
21,< 3,C[C@H]1CCCN(C(=O)c2ccc3c(-c4ccc5c(=O)[nH]ncc5c4)cccc3c2)C1 [compound 81]
22,< 3,O=C1NCc2cc(-c3cccc4cc(C(=O)N5CCC(F)(F)CC5)ccc34)cnc21 [compound 82]
23,< 3,Cc1n[nH]c(=O)c2ccc(-c3cccc4cc(C(=O)N5CCC(F)(F)CC5)ccc34)cc12 [compound 83]
24,< 3,CC1CCN(C(=O)c2ccc3c(-c4ccc5c(=O)[nH]ncc5c4)cccc3c2)CC1 [compound 84]
25,3 to 10,CN1Cc2cc(-c3c(F)ccc4cc(C(=O)N5CCC(F)(F)CC5)ccc34)cnc2C1=O [compound 85]

row,IC50 [nM],Compound
1,< 3,O=C(c1ccc2c(-c3cc4cc[nH]c(=O)c4cn3)c(F)ccc2c1)N1CCC(F)(F)CC1 [compound 86]
2,< 3,O=C(c1ccc2c(-c3ccc4c(=O)[nH]ncc4c3)c(F)ccc2c1)N1CCC(F)(F)CC1 [compound 87]
3,< 3,CN1Cc2cc(-c3cccc4cc(C(=O)N5CCC(F)(F)CC5)ccc34)ncc2C1=O [compound 88]
4,≥ 10,O=C(c1ccc2cc(-c3ccc4c(=O)[nH]ccc4c3)ccc2c1)N1CCC(F)(F)CC1 [compound 89]
5,3 to 10,Cn1nc2n(c1=O)CCN(c1cccc3cc(C(=O)N4CCCCC4)cnc13)C2 [compound 90]
6,< 3,C[C@@H]1CCCN(C(=O)c2ccc3c(N4CCc5ncccc5C4)cccc3c2)C1 [compound 91]
7,< 3,Cn1nc2n(c1=O)CCN(c1cccc3cc(C(=O)N4CCCC5(CC5)C4)ccc13)C2 [compound 92]
8,< 3,O=C(c1ccc2c(N3CCn4c(nn(CC(F)F)c4=O)C3)cccc2c1)N1CCC[C@H](C(F)(F)F)C1 [compound 93]
9,< 3,Cn1nc2n(c1=O)CCN(c1cccc3cc(C(=O)N4CCCC5CC54)ccc13)C2 (centres unmarked) [compound 94]
10,3 to 10,Cn1cnc2c1CCN(c1cccc3cc(C(=O)N4CCCCC4)ccc13)C2 [compound 95]
11,3 to 10,CN1CC2CN(c3cccc4cc(C(=O)N5CCCCC5)ccc34)CCN2C1=O (centres unmarked) [compound 96]
12,3 to 10,COC(=O)c1ccc(-c2cccc3cc(C(=O)N4CCC(F)(F)CC4)ccc23)cc1F [compound 97]
13,< 3,CN1Cc2cc(-c3ccnc4cc(C(=O)N5CCCCC5)ccc34)ccc2C1=O [compound 98]
14,3 to 10,CN1Cc2cc(-c3cccc4cc(C(=O)N5CCC(F)(F)CC5)cnc34)ccc2C1=O [compound 99]
15,< 3,Cc1ccc2cc(C(=O)N3CCC(F)(F)CC3)ccc2c1-c1ccc2c(=O)[nH]ncc2c1 [compound 100]
16,< 3,O=C1NCc2nc(-c3cccc4cc(C(=O)N5CCC(F)(F)CC5)ccc34)ccc21 [compound 101]
17,3 to 10,O=C(c1ccc2c(-c3cnc4c(=O)[nH]ncc4c3)c(F)ccc2c1)N1CCC(F)(F)CC1 [compound 102]
18,< 3,C[C@H]1CCCN(C(=O)c2ccc3c(N4CCn5c(nn(C)c5=O)C4)cccc3c2)C1 [compound 103]
19,< 3,C[C@H]1CCCN(C(=O)c2ccc3c(N4CCn5c(nn(CC(F)F)c5=O)C4)cccc3c2)C1 [compound 104]
20,< 3,O=C(c1ccc2c(N3CCc4ncccc4C3)cccc2c1)N1CCCC2(CC2)C1 [compound 105]
21,3 to 10,Cn1nc2n(c1=O)CCN(c1nccc3cc(C(=O)N4CCC(F)(F)CC4)cc(F)c13)C2 [compound 106]
22,< 3,Cn1ccc2c(c1=O)CCN(c1cccc3cc(C(=O)N4CCCCC4)ccc13)C2 [compound 107]
23,< 3,C[C@@H]1CCN(C(=O)c2ccc3c(N4CCc5ncccc5C4)cccc3c2)C1 [compound 108]
24,< 3,O=C(c1ccc2c(-c3ccn4c(=O)[nH]nc4c3)cccc2c1)N1CCCCC1 [compound 109]
25,< 3,O=C(c1ccc2c(-c3ccc4c(=O)[nH]ccc4c3)cccc2c1)N1CCC(F)(F)CC1 [compound 110]

row,IC50 [nM],Compound
1,< 3,O=C(c1ccc2c(-c3cc4cc[nH]c(=O)c4cn3)cccc2c1)N1CCC(F)(F)CC1 [compound 111]
2,3 to 10,O=C(c1ccc2c(-c3ccc4c(c3)CN(CC3(C(F)(F)F)CC3)C4=O)cccc2c1)N1CCC(F)(F)CC1 [compound 113]
3,3 to 10,O=C(c1ccc2c(-c3ccc4c[nH]c(=O)cc4c3)cccc2c1)N1CCC(F)(F)CC1 [compound 114]
4,< 3,Cc1c(-c2cccc3cc(C(=O)N4CCC(F)(F)CC4)ccc23)ccn2c(=O)n(C)nc12 [compound 115]
5,< 3,Cn1ccc2cc(-c3cccc4cc(C(=O)N5CCC(F)(F)CC5)ccc34)ccc2c1=O [compound 116]
6,< 3,Cn1ncc2cc(-c3cccc4cc(C(=O)N5CCC(F)(F)CC5)ccc34)ccc2c1=O [compound 117]
7,< 3,O=C(c1ccc2c(-c3ccc4c(=O)n(CCO)ncc4c3)cccc2c1)N1CCC(F)(F)CC1 [compound 118]
8,< 3,CC1CN(C(=O)c2ccc3c(-c4ccc5c(=O)[nH]ncc5c4)cccc3c2)CCC1(F)F (centres unmarked) [compound 119]
9,< 3,CN1Cc2cc(-c3cncc4cc(C(=O)N5CCC(F)(F)CC5)ccc34)ccc2C1=O [compound 120]
10,< 3,O=C(c1ccc2c(-c3ccc4c(=O)[nH]ncc4c3)cccc2c1)N1CC2(CCC2)C1 [compound 121]
11,< 3,O=C(c1ccc2c(-c3ccc4c(=O)[nH]ncc4c3)cccc2c1)N1C[C@H]2CCC[C@H]2C1 [compound 122]
12,< 3,O=C(c1ccc2c(-c3ccc4c(=O)[nH]ncc4c3)cccc2c1)N1CC=CCC1 [compound 123]
13,< 3,O=C(c1ccc2c(-c3ccc4c(=O)[nH]ncc4c3)cccc2c1)N1CCCC2CC21 (centres unmarked) [compound 124]
14,< 3,CC1CCN(C(=O)c2ccc3c(-c4cnc5c(c4)CN(C)C5=O)cccc3c2)CC1 [compound 125]
15,< 3,O=C(O)c1c(F)cc(-c2cccc3cc(C(=O)N4CCC(F)(F)CC4)ccc23)cc1F [compound 126]
16,< 3,O=C(O)c1ncc(-c2cccc3cc(C(=O)N4CCC(F)(F)CC4)ccc23)cn1 [compound 127]
17,< 3,O=C(c1ccc2c(-c3cnc4c(=O)[nH]cnc4c3)cccc2c1)N1CCC(F)(F)CC1 [compound 128]
18,< 3,COCn1nc2cc(-c3cccc4cc(C(=O)N5CCC(F)(F)CC5)ccc34)ccn2c1=O [compound 129]
19,< 3,O=C(O)c1ncc(-c2cccc3cc(C(=O)N4CCC(F)(F)CC4)ccc23)cc1F [compound 130]
20,< 3,O=C(c1cnc2c(-c3cnc4c(=O)[nH]ccc4c3)cccc2c1)N1CCC(F)(F)CC1 [compound 132]
21,3 to 10,O=C(c1cnc2c(-c3cc4cc[nH]c(=O)c4cn3)cccc2c1)N1CCC(F)(F)CC1 [compound 133]
22,< 3,O=C(c1cnc2c(-c3ccc4c(=O)[nH]ccc4c3)cccc2c1)N1CCC(F)(F)CC1 [compound 134]
23,< 3,CN1Cc2cc(-c3ccc4ccc(C(=O)N5CCC(F)(F)CC5)cc4c3)ccc2C1=O [compound 138]
24,< 3,O=C(c1ccc2ccc(-c3ccc4c(=O)[nH]ccc4c3)cc2c1)N1CCC(F)(F)CC1 [compound 139]
